Results: US20160361398A1, “METHOD FOR THE TREATMENT OF MULTIPLE SCLEROSIS” (Vereniging voor Christelijk Wetenschappe Onderwijs, priority 2015, published 2016)
No end group written: not given here.

Experiments:
[1] = system: MOG-responsive CD4+ T cells (2D2 T cells); assay: T helper differentiation: antigen-pulsed DCs co-cultured with naive 2D2 CD4+ T cells, intracellular staining for Foxp3 and IFN-γ; type: cell-based, mouse; settings: cultured six days with 2D2 T cells; for induction of suppressive Foxp3+CD4+ T cells: FIG. 1A; for CD4+ IFN-γ+ MOG effector T cells: FIG. 1B
Text: For that purpose, DC were pulsed with α-2-6-Sia-MOG35-55 and a non-sialylated MOG 35-55 peptide as a control, and cultured for six days with MOG-responsive CD4^+ T cells (2D2 T cells (Bettelli et al., J. Exp. Med., 2003).
(§1) Antigen-specific nave CD4+CD62LhiCD25− T cells were purified from spleen and LN cell suspensions obtained from 2D2 mice using the Dynal mouse CD4+ CD62L+ T cell isolation kit II mouse (Miltenyi Biotec, Bergisch Gladbach, Germany) or by sorting on a MoFlo (DakoCytomation, Glostrup, Denmark). The resulting naïve CD4+ CD62L+CD25− T cell populations were typically 95% pure as assessed by flow cytometry. Naïve CD4+ T cells (5×10^4) were added to wells containing DCs (1×10^4) that were pulsed with indicated concentrations of antigen modified with a sialylated oligosaccharide or native antigen 3 hours prior. After 2 days, 10 U/ml recombinant mouse IL-2 (Invitrogen, Bleijswijk, The Netherlands) was added. T-cell polarization was evaluated on day 6 by intra-cellular staining for Foxp3 and IFN-γ following 5 hours restimulation with phorbol 12-myristate 13-acetate (PMA; […])/ionomycin (Sigma; 500 ng/ml) in the presence of Brefeldin A (Sigma; 5 μg/ml). For inhibition of effector Th1 and Th17 cells, Naïve 2D2 T cells were converted in Th1 or Th17 cells by culturing; one week later, effector T cells re-stimulated with DC pulsed with MOG or Sialylated MOG. After 24 hours, the supernatant was harvested for presence of IFN-γ or IL 17 as measure of activity of Th1 and Th17 effector cells, respectively.

[2] = system: MOG-specific CD4+ (2D2) T-cells; assay: IFN-γ in culture supernatants of DC / 2D2 T-cell co-cultures; type: cell-based, mouse; settings: 2D2 T cells primed by antigen-loaded DCs; FIG. 1C
Protocol: as §1, with “For inhibition of effector Th1 and Th17 cells, Naïve 2D2 T cells were converted in Th1 or Th17 cells by culturing; one week later, effector T cells re-stimulated with DC pulsed with MOG or Sialylated MOG. After 24 hours, the supernatant was harvested for presence of IFN-γ or IL 17 as measure of activity of Th1 and Th17 effector cells, respectively.” left out
(§2) Cytokine production by T cells and DCs was assessed by cytometric bead arrays using the CBA Th1/2/17 kit and mouse inflammation kit, respectively (BD Biosciences), or by ELISA using specific antibody pairs (eBiosciences) following the manufacturers' instructions.

[3] = system: MOG-specific CD4+ T cells; assay: qRT-PCR of MOG-specific CD4+ T cells isolated on day 6 of co-culture with pulsed DCs; type: cell-based, mouse; settings: for Foxp3 mRNA level (qRT-PCR, normalized to GAPDH): FIG. 1D right panel
Protocol: FIG. 1D: (Left panel) Expression of T-bet, which is a measure for IFN-γ-producing effector CD4 T cells (Th1). (Right panel) Foxp3 mRNA, which is a measure for Treg cells that suppress, were determined using qRT-PCR and subsequently normalized to housekeeping gene GAPDH, which is equal under all conditions.

[4] = system: Th1 and Th17 cells generated from 2D2 CD4 T cells; assay: Inhibition of effector Th1 and Th17 cells generated from 2D2 T cells, re-stimulated with pulsed DCs; type: cell-based, mouse; settings: supernatant after 24 hours; for secretion of effector cytokine by Th1 cells (IFN-gamma): FIG. 1E left panel; for secretion of effector cytokine by Th17 cells (IL-17): FIG. 1E right panel
Text: As stated hereinbefore, Th1 and Th17 are the effector CD4T cells that cause inflammation in MS. […] This was not observed when these effector cells were co-cultured with DCs loaded with non-sialylated MOG 35-55 (FIG. 1E). Thus, it was concluded that T cells generated in the presence of DCs exposed to α-2,6-Sia-MOG35-55, indeed were functional in that they were able to suppress MOG-specific effector T cells and, therefore, able to dampen ongoing inflammation. It follows that the disclosure may be applied for treating ongoing inflammation, such as the inflammation observed in MS patients, when, at the peak of the disease, auto-reactive, myelin-specific CD4^+ and CD8^+ T cells are involved in the demyelination of the neurons.
as §1

[5] = system: MOG-specific effector CD4 T cells from EAE splenocytes; assay: EAE splenocytes re-stimulated ex vivo with antigen-loaded DCs: [3H]thymidine incorporation; type: cell-based, mouse; settings: after 4 days of culture; EAE scores 1, 2 and 3; FIG. 1F
Protocol: To examine this even further, testing was performed to determine whether DCs exposed to α-2,6-Sia-MOG35-55 were able to inhibit MOG-specific effector T cells that were obtained from splenocytes from mice suffering from experimental autoimmune encephalomyelitis (EAE). To this effect, CD4 effector T cells were harvested from splenocytes of mice at various EAE clinical scores, representing different stages of effector T cell number and activity, wherein score 1 is the onset of disease and score 2 and 3 are the more severe phases of the disease.
Testing was performed to determine whether DCs ex vivo loaded with Sia-MOG could inhibit the proliferation of the MOG-specific effector CD4 T cells that were obtained from EAE mice.
DCs loaded with α-2-6-Sia-MOG35-55 or non-sialylated MOG35-55 were cultured with EAE splenocytes and, after 4 days of culture, [3H]thymidine incorporation was determined as a measure of proliferation and division of CD4 T cells (FIG. 1 F).
(§3) Splenocytes from mice that suffered EAE were re-stimulated ex-vivo with DCs loaded with either non-sialylated MOG or α-2-6-Sia-MOG35-55 and as a control, DC with no antigen. DC and T cells were cultured as described in Example 2, as described above, for 4 days. 3H and IFN-γ was determined as described above.

[6] = system: MOG-reactive effector T cells from EAE mice; assay: EAE splenocytes re-stimulated ex vivo with antigen-loaded DCs: IFN-γ production; type: cell-based, mouse; settings: 4 days of culture; EAE mice with different scoring; FIG. 1G
Protocol: To determine the functionality of the MOG-reactive effector cells, IFN-γ production was measured (FIG. 1G).
as §3, §2

[7] = system: experimental autoimmune encephalomyelitis; settings: intravenous administration; cited from earlier work
[8] = system: naive OVA-specific CD4+ T cells (OT-II); assay: Antigen specificity: loaded DCs challenged with OVA, co-cultured with OT-II cells, Foxp3+ CD4+ by flow cytometry; type: cell-based, mouse; settings: for tolerogenic cells (Foxp3+ CD4+ T cells) in a population of OT-II cells: loaded DCs subsequently challenged with OVA
Protocol: (§4) For that purpose, dendritic cells were loaded with sia-OVA and subsequently challenged in the presence of specific CD4+ T cells with either OVA or with a myelin oligodendrocyte glycoprotein peptide (MOG 35-55).
(§5) The thus-loaded dendritic cells were then co-cultured with naive MOG-specific CD4+ T cells (called 2D2) in the presence of MOG 35-55 or with naive OVA-specific CD4+ T cells (called OT-II) in the presence of ovalbumin (OVA).
(§6) Subsequently, it was determined whether sia-OVA-loaded dendritic cells were able to induce tolerogenic T cells in an antigen-specific manner. This was done by determining the percentage of Foxp3+ CD4+ T cells by flow cytometry.

[9] = system: naive MOG-specific CD4+ T cells (2D2); assay: Antigen specificity: sia-OVA-loaded DCs challenged with MOG 35-55, co-cultured with 2D2 cells, Foxp3+ CD4+ by flow cytometry; type: cell-based, mouse; settings: loaded DCs subsequently challenged with MOG 35-55
Protocol: as §4, §5, §6

Substance	induction of suppressive Foxp3+CD4+ T cells [1]	CD4+ IFN-γ+ MOG effector T cells [1]	secreted IFN-γ in culture supernatants [2]	Foxp3 mRNA level (qRT-PCR, normalized to GAPDH) [3]	secretion of effector cytokine by Th1 cells (IFN-gamma) [4]	secretion of effector cytokine by Th17 cells (IL-17) [4]	proliferation of MOG-specific CD4 T cells ([3H]thymidine incorporation) [5]	IFN-γ production of MOG-reactive effector cells [6]	tolerogenic cells (Foxp3+ CD4+ T cells) in a population of OT-II cells [8]	further results
MEVGWYRPPFSRVVHLYRNGK [non-sialylated MOG35-55, reference compound]	not induced	3.5%	significant amounts	hardly expressed	not observed	not observed	stimulate the proliferation	enhance	–	T-bet mRNA level (qRT-PCR, normalized to GAPDH) ([3]; FIG. 1D left panel): higher mRNA levels; effect on experimental autoimmune encephalomyelitis [7]: suppresses
OVA: ovalbumin, control antigen [reference compound]	–	–	–	–	–	–	–	–	did not induce tolerogenic cells above background levels	–
sia-OVA: sia-2,3 and 2,6-conjugated ovalbumin	–	–	–	–	–	–	–	–	about 10%	tolerogenic cells (Foxp3+ CD4+ T cells) in a population of 2D2 cells [9]: did not induce tolerogenic cells above background levels
α-2-6-Sia-OVA: OVA coupled to 6′-Sialyl-N-acetyllactosamine (6′-SLN)	–	–	–	–	–	–	–	–	–	immune tolerance against OVA ([8]; DCs exposed to the antigen): capable of inducing immune tolerance against OVA
α-2-6-Sia-MOG35-55: MOG 35-55 peptide with N-terminal cysteine covalently attached via MPBH linker to 6′-sialyl-N-acetyllactosamine (Neu5Ac(α)2-6Gal(β)1-4GlcNAc) (GPGYPIRALVGDEAELPCRIS; not fully specified (N-terminus); also: N-terminal Cys linked via MPBH to 6'-sialyl-LacNAc (Neu5Ac(α)2-6Gal(β)1-4GlcNAc); UniProt Q61885 35-55, looked up, fragment)	majority of the CD4 T cells co-express Foxp3	0.3%	reduction	high levels	significantly reduced	significantly reduced	clear reduction of proliferation	suppressed	–	–
